Measured values taken from paper PMC7311950, “Potent Tetrahydroquinolone Eliminates Apicomplexan Parasites” (Frontiers in Cellular and Infection Microbiology, 2020).

What was measured:
bovine cytochrome bc1 = biological target: T1, bovine cytochrome bc1 (Bos taurus, UniProt P00157); test: Bovine cytochrome bc1 activity assay; assay type: biochemical; conditions: read-out: Bovine Cytbc1 activity inhibition
T1 construct: Whole fresh bovine heart was collected after slaughter and transported in ice; from tissue; host or cells: bovine heart mitochondria; DDM-solubilised, DEAE-Sepharose and Sephacryl-S300 purified
Experimental: Bovine cytochrome bc1 inhibition assay was carried out in 50 mM KPi pH 7.5, 2 mM EDTA, 10 mM KCN, 30 μM equine heart cytochrome c (Sigma Aldrich), and 2.5 nM bovine cytochrome bc1 at room temperature. 20 mM inhibitors dissolved in DMSO were added to the assay at a desired concentration without prior incubation. […] The reaction was initiated by the addition of 50 μM decylubiquinol (Abcam). The reduced cytochrome c was monitored by the different absorption between 550 and 542 nm using extinction coefficient of 18.1 mM^−1 cm^−1 in a SPECTRAmax Plus 384 UV-visible Spectrometer. The initial kinetic rate is determined as a zero-order reaction and used as the specific activity of cytochrome bc1.

P. berghei sporozoites = test: P. berghei causal prophylaxis in vivo model; design: species or system Plasmodium berghei; conditions: oral nanoformulation, single dose 2.5 mg/kg day 0 or 3 doses 0.625 mg/kg days −1, 0, +1; C57BL/6 albino mice
Text: P. berghei sporozoites were obtained from laboratory-reared female Anopheles stephensi mosquitoes which were maintained at 18 degrees C for 17–22 days after feeding on a luciferase expressing P. berghei infected Swiss CD1ICR. Using a dissecting microscope, the salivary glands were extracted from malaria-infected mosquitoes and sporozoites were obtained. Briefly, mosquitoes were separated into head/thorax and abdomen. Thoraxes and heads were triturated with a mortar and pestle and suspended in medium RPMI 1640 containing 1% C57BL/6 mouse serum (Rockland Co, Gilbertsville, PA, USA). […] They were stained with a vital dye containing fluorescein diacetate (50 mg/mL in acetone) and ethidium bromide (20 μg/mL in phosphate buffered saline; Sigma Chemical Co, St. Louis, MO, USA) and counted in a hemocytometer to ensure that inoculated sporozoites were viable following the isolation procedure. […]
Animals were dosed with experimental compounds based on body weight. […] To insure the size of the compounds in the dosing solution were under […], the suspension was homogenized using a homogenizer (PRO Scientific Inc, Monroe, CT, USA) with a 10 mm open-slotted generator running at 20,000–22,000 rpm for 5 min in an ice bath. […] Stability beyond that time was not determined. […]

[1] = tested on: P-glycoprotein (P-gp, MDR1); test: in vitro; conditions: dog, MDCK-MDR1
Experimental: (§1) The effects of changing R1 as 7-Et, 7-Me, 6-CF3, or 6-Me on activity against RH strain tachyzoites, kinetic solubility, and metabolic stability were compared. Kinetic solubility and metabolic stability in human or murine liver microsomes were measured. The hERG (human Ether-à-go-go-Related) liability was also determined. The hERG gene (KCNH2) encodes a protein Kv11.1, the alpha subunit of a potassium ion channel. This channel conducts the rapid component of the delayed rectifier potassium current, IKr, which is critical for repolarization of cardiac action potentials. A reduction in hERG currents from adverse drug effects can lead to long QT interval syndromes. These syndromes are characterized by action potential prolongation, lengthening of the QT interval on surface EKG, and an increased risk for “torsade de pointes” arrhythmias and sudden death. The MDCK-MDR1 Permeability Assay was also performed. MDCK-MDR1 refers to the ability of a compound to permeate across membranes of MDCK-MDR1 (Madin Darby canine kidney [MDCK] cells with the MDR1 gene [ABCB1], the gene encoding for the efflux protein, P-glycoprotein (P-gp)) in vitro. Assessing transport in both directions (apical to basolateral and basolateral to apical) across the cell monolayers enables an efflux ratio to be determined. […] This provides a prediction of blood brain barrier (BBB) penetration potential/permeability and efflux ratio. Effect in CACO-2 (Colon Adenocarcinoma cells) as a permeability assay and on cytochrome P450 (CYP 450) were also determined. CYP enzymes catalyze oxidative biotransformation (phase 1 metabolism) of most drugs. CYP enzymes, bind to membranes in a cell (cyto) and contain a heme pigment (chrome and P) that absorbs light at a wavelength of 450 nm when exposed to carbon monoxide. Metabolism of a drug by CYP enzymes is a major source of variability in drug effect. These were measured by Chem Partners. The relative effect on HFF and parasite enzymes also were compared.
(§2) In vitro absorption, distribution, metabolism, excretion, and toxicity (ADMET) analyses of the THQ compounds were outsourced to ChemPartner Shanghai Ltd. ELQ-271 (synthesized in-house) was tested as a comparison.

[2] = tested on: P-glycoprotein (P-gp, MDR1/ABCB1); test: in vitro; conditions: dog, MDCK-MDR1
Experimental: as §1, §2

| Structure (SMILES) | inhibition at 0.1 µM (bovine cytochrome bc1; 0.1 μM) [%] | inhibition at 1 µM (bovine cytochrome bc1; 1 μM) [%] | survival 30 days post infection (P. berghei sporozoites) [%] | Papp [1] [×10⁻⁶ cm/s] | efflux ratio [1] | Papp [2] [×10⁻⁶ cm/s] | efflux ratio [2] |
| --- | --- | --- | --- | --- | --- | --- | --- |
| Cc1[nH]c2c(c(=O)c1-c1ccc(Oc3ccc(OC(F)(F)F)cc3)cc1)CCCC2 [JAG21, 2-Methyl-3-(4-(4-(Trifluoromethoxy)Phenoxy)Phenyl)-5,6,7,8-Tetrahydroquinolin-4-One] | 36 | 63 | 100 | > 10 | < 1.5 | – | – |
| Cc1[nH]c2c(c(=O)c1-c1ccc(Oc3ccc(Cl)cc3)cc1)CCCC2 [JAG50] | – | – | – | – | – | > 10 | < 1.5 |
